Measurements: publication PMC7284125, “Identification of annotated bioactive molecules that impair motility of the blood fluke Schistosoma mansoni” (International Journal for Parasitology: Drugs and Drug …, 2020)
Like-named read-outs stand apart in the source and are kept apart here.

Tests used:
Assay type in all cases: cell-based, Schistosoma mansoni
[1] = test system: S. mansoni schistosomulae; test: Phenotypic primary screen assay on schistosomulae (phenotype; viability by methylene blue dye exclusion); conditions: for Viability (%) / Phenotype: three-day-old schistosomulae, 10 μM, 24 h; for Viability (%): calculated 5 days post compound exposure; for Phenotype: estimated 5 days post compound exposure
Experimental: Puerto Rican strain Biomphalaria glabrata snails infected with S. mansoni were kindly provided by Dr. Fred Lewis (Biomedical Research Institute and BEI Resources, MD, USA). Schistosomulae were obtained by exposing six to eight weeks-old snails to continuous light for 2 h at 32 °C. […] At this point, animals with internal dark granulations and with no observable body contraction/relaxation cycles were considered dead.
Schistosomulae were monitored under a stereo microscope (SMZ1270, Nikon). Phenotypic observations were made by analyzing schistosomulae, 24 h after drug addition to assess any immediate effect and five days post-compound exposure to observe long-term impacts on both the movement and overall body shape in comparison to control animals exposed to DMSO only.

[2] = test system: S. mansoni schistosomulae; test: Motility assay on schistosomulae (pixel displacement, relative to DMSO control); conditions: for activity at 1 µM: Schistosoma mansoni, read-out: Fractional motility
Experimental: Puerto Rican strain Biomphalaria glabrata snails infected with S. mansoni were kindly provided by Dr. Fred Lewis (Biomedical Research Institute and BEI Resources, MD, USA). Schistosomulae were obtained by exposing six to eight weeks-old snails to continuous light for 2 h at 32 °C. The resulting suspension of cercaria was then mechanically transformed as described ([Lewis, 2001]) and cultured in Opti-MEM/antibiotics (Thermo Fisher Scientific, Waltham, MA) containing 100 μg/mL streptomycin and 100 units/ml penicillin supplemented with 5% fetal bovine serum (FBS; Thermo Fisher). Parasite cultures were incubated at 37 °C with 5% CO2 for at least 10 days with no apparent loss of viability. At this point, animals with internal dark granulations and with no observable body contraction/relaxation cycles were considered dead.
(§1) Schistosomulae (200/well) and adult parasites (unpaired worms) were maintained in 300 μL OPTI-MEM with 5% dialyzed FBS (without antibiotics) and exposed to compounds at 1 and 10 μM for 24 h. A kinetic assay consisting of 1, 3, 6 and 12 h incubation times was performed on selected hits by motility monitoring using a stereo microscope (SMZ1270, Nikon) for adults and an inverted microscope for schistosomulae (eclipse TE2000-U, Nikon) connected to a monochrome camera (DS-Qi2, Nikon) for image acquisition. Images were recorded at a rate of 10 frames/s for a period of 1 min and videos were analyzed using ImageJ software (version 1.41, NIH, USA). Parasite movement quantification and data analysis protocols were applied using the pixel displacement method ([Patocka et al., 2014]; [Rashid et al., 2015]) and compared to control parasites treated with DMSO. Parasites were then washed several times in Opti-MEM, 5% FBS and incubated up to an additional three days (schistosomulae) or five days (adult worms) at 37 °C, 5% CO2 and motility was recorded as described above.

S. mansoni adult worms = test: Motility assay on adult parasites (pixel displacement, relative to DMSO control); conditions: 10 μM; for Fractional motility: secondary screen; for motility phenotype in words: adults, long-term after washout
Experimental: Adult parasites were collected from 40 day-old female CD1 mice (Charles River) previously inoculated by the tail infection method ([Lewis, 2001]). Six weeks post-infection, mice were sacrificed, and adult worms extracted after perfusion of in the hepatic portal vein and mesenteric venules ([Lewis, 2001]). Animal procedures were reviewed and approved by the Facility Animal Care Committee of McGill University (Protocol No. 3346) and were conducted in accordance with the guidelines of the Canadian Council on Animal Care.
as §1

[3] = schistosomulae, secondary screen, 24h exposure, read at D1, 1 µM
[4] = schistosomulae, secondary screen, 24h exposure, read at D1, 10 µM
[5] = schistosomulae, 1h exposure, read at D1, 10 µM
[6] = schistosomulae, 1h exposure, read at D5, 10 µM
[7] = schistosomulae, 3h exposure, read at D1, 10 µM
[8] = schistosomulae, 3h exposure, read at D5, 10 µM
[9] = schistosomulae, 6h exposure, read at D1, 10 µM
[10] = schistosomulae, 6h exposure, read at D5, 10 µM
[11] = schistosomulae, secondary screen, 24h exposure, read at D5, 1 µM
[12] = schistosomulae, secondary screen, 24h exposure, read at D5, 10 µM
[13] = 120 h, schistosomulae, secondary screen, 24h exposure, read at D5, 1 µM

SMILES	Viability (%) [1]	Phenotype [1]	Fractional motility [2, 3]	Fractional motility [2, 4]	Fractional motility (S. mansoni adult worms; D1, Female adult worms)	Fractional motility (S. mansoni adult worms; D1, Male adult worms)	Fractional motility (S. mansoni adult worms; D5, Female adult worms)	Fractional motility (S. mansoni adult worms; D5, Male adult worms)	Fractional motility [2, 5]	Fractional motility [2, 7]	Fractional motility [2, 8]	Fractional motility [2, 9]	Fractional motility [2, 10]	Fractional motility [2, 11]	Fractional motility [2, 12]	motility phenotype in words (S. mansoni adult worms)	other results
C#CC[C@H](c1nc2cc(Cl)ccc2c(=O)n1Nc1ccccc1)N(CCCN)C(=O)c1cccc(Cl)c1F [ARQ 621]	13%	dark, granulated	2.11	2.52	-0.48	0.41	-0.43	0.0454									
COc1cc(N2CCC(N)CC2)ccc1Nc1ncc(Cl)c(-c2c[nH]c3ccccc23)n1 [AZD3463]	42,5%	dark, granulated	0.62	1.68	-0.12	0.58	-0.93	-0.57	1.70	5.60	-0.68	2.17	-0.70	0.15	-0.81	Significant hypomotility	Fractional motility [2, 6]: -0.84
CCCCc1oc2ccccc2c1C(=O)c1cc(I)c(OCCN(CC)CC)c(I)c1 [Amiodarone]		big, granulated		-0.80	-0.67	-0.41	-0.58	-0.38							-0.98		activity at 1 µM [2, 13]: 78%; activity at 1 µM [2, 3]: -11%
O=C(NC(NC(=S)Nc1ccc(F)c([N+](=O)[O-])c1)C(Cl)(Cl)Cl)C(c1ccccc1)c1ccccc1 (stereo not drawn) [CGK 733]	62,5%	dark, granulated, some big	0.41	-0.71	-0.10	0.12	-0.83	-0.19						-0.07	-0.90		
O=c1[nH]c2ccc(Cl)cc2c(N[C@@H]2CN3CCC2CC3)c1-c1nc2ccccc2[nH]1 [CHIR-124]	77%	big			4.53	10.48	-0.48	-0.25									Fractional motility ([2]; Selleckchem customized library secondary screen, 24h, D1, 1 µM): 6.60; Fractional motility ([2]; Selleckchem customized library secondary screen, 24h, D1, 10 µM): 100.65
Cc1nc(C#Cc2ccnc(Cl)c2)c(C)n1-c1ccc(OC(F)(F)F)cc1 [CTEP]	99%	big, granulated, blebbing	0.25	1.01	-0.44	-0.49	-0.35	-0.57						0.27	0.27		
c1ccc(CNc2nc(NCc3ccccc3)c3ccccc3n2)cc1 [DBeQ]	15,5%	dark, granulated	7.69	6.82	0.29	0.29	-0.91	-0.65	-0.96	1.19	-0.88	0.41	-0.13	-0.29	4.98	severely paralyzed adults	Fractional motility [2, 6]: -0.93
CCn1c2ccccc2c2cc(Nc3ccnc(NCCCN4CCOCC4)n3)ccc21 [EHop-016]	80%	big, dark	3.03	0.07	0.25	0.85	-0.62	-0.29						0.99	-0.94		
CCOC(=O)CCNc1cc(N2CCc3ccccc3CC2)nc(-c2ccccn2)n1 [GSK J4]	5%	big, dark, granulated	0.46	-0.85	-0.0455	-0.11	-0.64	-0.63	0.43	-0.55	-0.56	-0.78	-0.70	0.88	-1.00	Significant hypomotility	Fractional motility [2, 6]: 0.28
CCc1ccc(OCc2ccccc2C(=O)Nc2ccc3nc(C)cc(N)c3c2)cc1 [JTC-801]	0%	big, granulated	3.71	-1.00	1.22	4.15		-0.56	-0.51	-0.95	-0.09	-0.74	-0.71	1.04	-0.99		effect on viability of schistosomulae in words ([1]; 24 h incubation, five days): lethal
c1cc(-c2cnn3cc(-c4ccc(N5CCNCC5)cc4)cnc23)c2cccnc2c1 [LDN-212854]	0%	dark, granulated	3.02	11.26	0.29	0.78	-0.84	-0.87	9.63	-0.97	-0.97	-0.98	-0.92	-0.46	-0.80	Significant hypomotility	Fractional motility [2, 6]: -0.87; motility in extended assay with reduced incubation times, in words ([2]; three-day old schistosomulae, incubation 1 h, 3 h, 6 h): significant and sustained hypomotility
CCCCCCCCCCCCCCCCn1cc[n+](Cc2ccccc2)c1C.[I-] [NH125]	18%	big, dark, granulated	1.58	-0.66	-0.74	0.53	-0.89	-0.87						-0.08	-0.55	Significant hypomotility	
C/C(=N\NC(=S)N1CCC1)c1ccccn1 [NSC319726]	68%	dark, granulated	0.0562	0.59	-0.13	-0.16	-0.84	-0.08						-0.75	-0.93		
O=C(C1CCCCC1)N1CC(=O)N2CCc3ccccc3C2C1 (stereo not drawn) [PZQ, praziquantel]				-0.47	-0.96	-0.98	-0.98	-0.99							-0.47		activity at 1 µM [2, 13]: -29%; activity at 1 µM [2, 3]: -30%
